One assay concerns the target p97 (Homo sapiens, UniProt P55072). Nature of the assay: P97 ATPase biochemical assay (ADP Glo). Here is the method: The ATPase assay is performed according the following protocol: Purified enzyme (20 nM p97), substrate (20 μM ATP) and a dose titration of compounds are mixed in buffer (50 mM TRIS pH 7.5, 20 mM MgCl2, 0.02% TX-100, 1 mM DTT, 0.2% (v/v) glycerol) and incubated at 37° C. for 15 minutes. The reaction is terminated and the level of product generated is measured using the ADP Glo Assay Kit (Promega, Madison Wis.). Plotting product generated versus compound concentration and using a four-parameter fit model generates an IC50 value for each compounds.
The p97 assay is an initial screening assay used to determine inhibitory activity of the monocyclic pyrimidine compounds of the invention against the p97 complex. As discussed above, inhibition of activity of the p97 proteosome complex can enable apoptosis and cause elimination of neoplastic cells (cancer cells). The method follows that of Christianson in Nat. Cell Biol., (2011) 14:93.
Assay Buffer is a mixture of 50 mM TRIS pH 7.5, 20 mM MgCl2, 0.02% TX-100, 1 mM DTT and 0.2% (v/v) Glycerol. The well plate is Platetype: Corning 3674, 384w plate. The identification kit is an ADP glo kit (Promega): stop buffer, detection reagent.
Serial dilute compound in DMSO in a 1:3.33-fold 10 point serial dilution.
0.5 μL compound serial diluted in DMSO (Final Conc. 10%)
2 μL ATP (Final Conc.=20 uM, diluted in assay buffer)
2.5 μL p97 (Final Conc.=20 nM, diluted in assay buffer)
Incubate at 37 degC for 15 min.
Add 5 μL of stop buffer, incubate at RT for 40 min.
Add 10 μL of detection reagent, incubate at RT for 30 min.
Read luminescence on Envision plate reader. • Upon obtaining the data from the luminescence reading, the data may be analyzed as follows:
Normalize luminescence data using no enzyme (full inhibition) and no compound (no inhibition) controls. Plot normalized luminescence data against log-transformed concentration values and fit to a sigmoidal curve to determine IC50 values (done in Collaborative Drug Discovery software).
The results are reported on the following Table for Examples A-EE and the E1-E4 compounds as 50 percent Inhibitory concentration at candidate doses of less than 30 nM, less than 100 nM, less than 300 nM and less than 1000 nM for the p97 inhibition assay.
A general note: ADP-Glo turns the ADP formed in a reaction into a luminescent signal.

In assay [1] the test system is K48 poly-Ubiquitin accumulation in A549 cells. Put plainly: A549 K48 poly-ubiquitin accumulation immunofluorescence assay. The note with it: Homo sapiens. It is filed as cell-based. Here is the method:
Image-analysis is used to generate quantitative data from these assays that can be fit to a four-parameter sigmoid curve to derive IC50 values. Substrates of the ubiquitin-proteasome system, such as p53, are monitored after tumor cell lines are incubated with compounds for several hours. Accumulation of these proteins indicates an inhibition of proteasome-mediated degradation. Accumulation of lysine-48 chain linkage of poly-ubiquitin is also monitored by immunofluorescence as an indicator of ubiquitin-proteasome system inhibition. Both LC3 and SQSTM1 are mediators of autophagy. The localization and amounts of these proteins are monitored by immunofluorescence and report on the activity and inhibition of autophagy in response to p97 inhibition.
(§1) Plate 25 μL of A549 cells in every well of 384-well plate using multidrop.
Two (2) black plates for IF at 2500 cells/well
Serial dilute compounds with a 10 point 2-fold serial dilution in DMSO to make 250× stock compound solution Dilute compounds 1:125 in cell culture media to make a 2× solution Add 25 μl of dilution compounds to cell plates in well duplicates Put cells back in incubator (6 hr incubation for black plates, 72 hr incubation for white plates).
Incubate cells in black plates with compound at 37 degC for 6 hrs. add 15 μL of 16% Paraformaldehyde (PFA) directly into media of each well, incubate at room temp for 5 min, flick plate and wash in 50 μL of PBS block in 50 μL of Blocking Buffer for 30 minutes (can go up to several hours) Blocking buffer: 1×PBS, 1% BSA, 0.3% Triton-X100, Hoechst (1:10,000) incubate in 25 μL of primary antibody in blocking buffer at 4 degC over night […]
Secondary Antibodies: • AlexaFluor488 Goat anti-Rabbit 1:2,000 (Life Tech A11008) • AlexaFluor555 Goat anti-Mouse 1:2,000 (Life Tech A21422) incubate in 25 μl of secondary antibody (1:2,000) in blocking buffer for 1-2 hrs at room temp (alexafluor488-anti-Rabbit/alexafluor555-anti-Mouse) Image plates in high content microscope with 405 nm, 488 nm and 555 nm filters Nuclear counts and cellular intensities of each markers are measured using Hoechst as a nuclear marker with an automated image analysis protocol using Matlab software (Math Works) The results are reported on the following Table I for Examples A-EE and the E1-E4 compounds as 50 percent Inhibitory concentration at candidate doses of less than 1 μM, less than 3 μM and less than 10 μM for both of the K48 antibody and the p53 (CTG) antibody assays

The test system of a further assay is A549 cells. Put plainly: Cultured cancer cell viability assay (cell titer glo, A549 CTG). It is filed as cell-based. The settings on record: Homo sapiens.
Excerpt: Anti-tumor effects are monitored in cultured cancer cells after several days of compound treatment. The cell titer glo assay (Promega) measures the amount of ATP present as a proxy for cellular viability. Cellular counting is done using high-content microscopy followed by image analysis. A hanging drop 3D-culture system (3D Biomatrix) is used followed by cell titer glo to measure growth in a tumor-like environment.
The cellular assay provides information about the anti-neoplastic activity of the compounds of the invention. The compounds are tested against cultured cancer cells to determine whether or not the compounds of the invention are capable of intersecting with cancer cells to minimize or eliminate such cells. The assay involves establishing colonies of such cells and then treating them with the test compound under specified conditions and analysis regime to determine results.
as §1
One (1) white plate for viability at 500 cells/well.
Serial dilute compounds with a 10 point 2-fold serial dilution in DMSO to make 250× stock compound solution
Dilute compounds 1:125 in cell culture media to make a 2× solution Add 25 μl of dilution compounds to cell plates in well duplicates
Put cells back in incubator (6 hr incubation for black plates, 72 hr incubation for white plates).
Thaw an aliquot of frozen cell titer glo (Promega G7572) at room temperature.
Add 45 mL of NaCl/PBS solution to 5 ml of cell titer glo (10×).
Remove white plates from incubator, leave at room temp for 30 minutes.
Add 25 μl of diluted cell titer glo to each well.
Shake plate for >1 minute.
Incubate plate for >5 minutes to stabilize luminescence. • Luminescence is stable for up to 3 hours.
Read luminescence on plate reader
The results are reported on the following Table I for Examples A-EE and the E1-E4 compounds as 50 percent Inhibitory concentration at candidate doses of less than 1 μM, less than 3 μM and less than 10 μM for both of the K48 antibody and the p53 (CTG) antibody assays
For orientation: In ATP-based viability assays light output follows the ATP content of the culture.

Where [2] appears, read: 20 nM p97, 20 uM ATP, 37 degC 15 min.
Where [3] appears, read: A549 cells, 6 hr incubation, K48-Ub antibody, read-out: A549 K48 IC50.
Setting [4] is: A549 cells, 72 hr incubation, cell titer glo, read-out: A549 CTG IC50.

SMILES strings stand for the structures. pIC50: −log10 of the molar value. Read-outs that look alike come from different tables or passages of the source.

Chain of p97 (P55072 whole entry): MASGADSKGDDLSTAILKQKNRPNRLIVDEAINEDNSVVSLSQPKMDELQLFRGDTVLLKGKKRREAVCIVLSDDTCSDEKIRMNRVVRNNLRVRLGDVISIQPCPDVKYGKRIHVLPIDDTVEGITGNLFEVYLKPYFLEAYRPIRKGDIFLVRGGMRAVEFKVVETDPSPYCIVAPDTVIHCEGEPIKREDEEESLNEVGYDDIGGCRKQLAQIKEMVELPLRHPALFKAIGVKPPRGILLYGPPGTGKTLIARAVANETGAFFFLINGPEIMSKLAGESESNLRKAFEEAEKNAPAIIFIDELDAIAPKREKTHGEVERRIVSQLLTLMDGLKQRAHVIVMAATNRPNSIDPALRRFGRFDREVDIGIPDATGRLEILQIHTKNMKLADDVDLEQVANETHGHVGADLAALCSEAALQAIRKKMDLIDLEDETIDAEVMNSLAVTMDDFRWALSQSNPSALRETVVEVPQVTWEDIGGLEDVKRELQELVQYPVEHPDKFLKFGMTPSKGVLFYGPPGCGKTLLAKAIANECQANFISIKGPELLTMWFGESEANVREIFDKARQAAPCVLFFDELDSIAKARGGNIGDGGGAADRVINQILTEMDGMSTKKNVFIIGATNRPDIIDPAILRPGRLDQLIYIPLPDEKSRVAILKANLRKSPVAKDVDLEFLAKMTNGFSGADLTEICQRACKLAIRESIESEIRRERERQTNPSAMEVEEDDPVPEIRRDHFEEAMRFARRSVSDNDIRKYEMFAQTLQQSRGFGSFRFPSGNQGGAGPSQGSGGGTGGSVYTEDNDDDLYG

For the molecule `Cc1c(NCc2ccccc2)nc(-n2c(C)cc3c(C(N)=O)cccc32)nc1C(F)(F)F` [Example 9, 1-[4-(benzylamino)-5-methyl-6-(trifluoromethyl)pyrimidin-2-yl]-2-methyl-1H-indole-4-carboxamide], the pIC50 against p97 (setting [2]) was above 7.52; in assay [1] (setting [3]), above 5.52; in the assay with A549 cells (setting [4]) it was above 5.52.

For `Cc1cc2c(C(N)=O)cccc2n1-c1ncc(C(N)=O)c(NCc2ccccc2)n1` [Example 10, 1-[4-(benzylamino)-5-carbamoylpyrimidin-2-yl]-2-methyl-1H-indole-4-carboxamide], the figures for the pIC50 (against p97 (setting [2]); in assay [1] (setting [3]); with A549 cells (setting [4])) were above 7.00, above 5.00 and above 5.00, respectively.

Regarding `Cc1nc(-n2ncc3c(C(N)=O)cccc32)nc(NCc2ccccc2)c1C(C)C` [Example 11, 1-(4-(benzylamino)-5-isopropyl-6-methylpyrimidin-2-yl)-1H-indazole-4-carboxamide], the pIC50 at p97 (setting [2]) was above 6.52; in assay [1] (setting [3]) it was above 5.52; in the assay with A549 cells (setting [4]) it was above 5.52.

As to `Cc1cc2c(C(N)=O)cccc2n1-c1ncc(C(C)C)c(NCc2ccccc2)n1` [Example 12, 1-(4-(benzylamino)-5-(propan-2-yl)pyrimidin-2-yl)-2-methyl-1H-indole-4-carboxamide], the pIC50 was above 7.52 against p97 (setting [2]); 8.05 against p97 (Table II, preliminary assays); 6.19 in assay [1] (A549, Table II, preliminary assays, read-out: K48 poly-Ubiquitin Accumulation); above 5.52 in assay [1] (setting [3]); 6.14 in the assay on A549 cells (A549, Table II, preliminary assays, read-out: Cell Titre Glow Assay IC50); above 6.00 with A549 cells (setting [4]).

As to `Cc1cc2c(C(N)=O)cccc2n1-c1ncc(N(C)C)c(NCc2ccccc2)n1` [Example 13, 1-(4-(benzylamino)-5-(dimethylamino)pyrimidin-2-yl)-2-methyl-1H-indole-4-carboxamide], the pIC50 on p97 (setting [2]) is above 7.52; in assay [1] (setting [3]), above 6.00; with A549 cells (setting [4]), above 5.52.

Turning to `Cc1nc(-n2c(C)cc3c(C(N)=O)cccc32)nc(NCc2ccccc2)c1N(C)C` [Example 15, 1-[4-(benzylamino)-5-(dimethylamino)-6-methylpyrimidin-2-yl]-2-methyl-1H-indole-4-carboxamide], the pIC50 is above 7.52 at p97 (setting [2]), above 5.52 in assay [1] (setting [3]) and above 5.52 with A549 cells (setting [4]).

In the case of `COCc1cnc(-n2c(C)cc3c(C(N)=O)cccc32)nc1NCc1ccccc1` [Example 18, 1-[4-(benzylamino)-5-(methoxymethyl)pyrimidin-2-yl]-2-methyl-1H-indole-4-carboxamide], the results for the pIC50 (against p97 (setting [2]); in assay [1] (setting [3]); with A549 cells (setting [4])) were above 6.52, above 5.52 and above 5.00, respectively.

Take `Cc1cc2c(C(N)=O)cccc2n1-c1ncc(S(C)(=O)=O)c(NCc2ccccc2)n1` [Example 19, 1-[4-(benzylamino)-5-(methylsulfonyl)pyrimidin-2-yl]-2-methyl-1H-indole-4-carboxamide]: the pIC50 against p97 (setting [2]) is above 7.00; in assay [1] (setting [3]), above 5.52; in the assay on A549 cells (setting [4]) it was above 5.52.

`CC(=O)NCc1cnc(-n2c(C)cc3c(C(N)=O)cccc32)nc1NCc1ccccc1` [Example 24, 1-[4-(benzylamino)-5-(acetamidomethyl)pyrimidin-2-yl]-2-methyl-1H-indole-4-carboxamide]: the pIC50 was above 6.52 at p97 (setting [2]), above 5.00 in assay [1] (setting [3]) and above 5.00 in the assay with A549 cells (setting [4]).

Turning to `Cc1cc2c(C(N)=O)cccc2n1-c1ncc(OC(C)C)c(NCc2ccccc2)n1` [Example 26, 1-[4-(benzylamino)-5-(propan-2-yloxy)pyrimidin-2-yl]-2-methyl-1H-indole-4-carboxamide], the pIC50 on p97 (setting [2]) is above 7.00; in assay [1] (setting [3]), above 5.52; in the assay on A549 cells (setting [4]), above 5.52.

As to `CCOc1cnc(-n2c(C)cc3c(C(N)=O)cccc32)nc1NCc1ccccc1` [Example 27, 1-[4-(benzylamino)-5-ethoxypyrimidin-2-yl]-2-methyl-1H-indole-4-carboxamide], the figures for the pIC50 (against p97 (setting [2]); in assay [1] (setting [3]); with A549 cells (setting [4])) were above 7.52, above 5.52 and above 5.52, respectively.

For `COCCOc1cnc(-n2c(C)cc3c(C(N)=O)cccc32)nc1NCc1ccccc1` [Example 28, 1-[4-(benzylamino)-5-(2-methoxyethoxy)pyrimidin-2-yl]-2-methyl-1H-indole-4-carboxamide], the values for the pIC50 (against p97 (setting [2]); in assay [1] (setting [3]); in the assay with A549 cells (setting [4])) were above 7.00, above 5.52 and above 5.00, respectively.

On to `COc1cnc(-n2c(CN)cc3c(C(N)=O)cccc32)nc1NCc1ccccc1` [Example 29, 2-(aminomethyl)-1-(4-(benzylamino)-5-methoxypyrimidin-2-yl)-1H-indole-4-carboxamide], for which the pIC50 at p97 (setting [2]) was above 7.00; in assay [1] (setting [3]), above 6.00; in the assay on A549 cells (setting [4]) it was above 5.52.

Consider `CC(C)c1cnc(-n2c(CN)cc3c(C(N)=O)cccc32)nc1NCc1ccccc1` [Example 30, 2-(aminomethyl)-1-[4-(benzylamino)-5-(propan-2-yl)pyrimidin-2-yl]-1H-indole-4-carboxamide], for which the pIC50 was above 7.00 at p97 (setting [2]), above 5.52 in assay [1] (setting [3]) and above 5.52 in the assay on A549 cells (setting [4]).

`COc1nc(-n2c(C)cc3c(C(N)=O)cccc32)nc(NCc2ccccc2)c1C` [Example 33, 1-(4-(benzylamino)-6-methoxy-5-methylpyrimidin-2-yl)-2-methyl-1H-indole-4-carboxamide]: the pIC50 against p97 (setting [2]) was above 7.52; in assay [1] (setting [3]) it was above 5.52; in the assay with A549 cells (setting [4]), above 5.00.

These data come from US9868722B2, “Monocyclic pyrimidine/pyridine compounds as inhibitors of P97 complex” (Cleave Biosciences, Inc., priority 2013, dated 2018).
